Measured values taken from PMC3392217, “BmK-YA, an Enkephalin-Like Peptide in Scorpion Venom” (PLoS ONE, 2012).
No end group written: not given here.

Legend:
Format in all cases: cell-based
[1] = molecular target: T1, human opioid receptor δ (Homo sapiens, UniProt P41143); experiment: Ca2+ response monitored by FLIPR, δ-expressing cells
T1 construct: expressed in transfected cells
Description: (§1) The assay was performed as reported earlier.
(§2) Potency is determined by EC50.

[2] = molecular target: T2, human opioid receptor μ (Homo sapiens, UniProt P35372); experiment: Ca2+ response monitored by FLIPR, μ-expressing cells; conditions: μ-expressing HEK293T cells
T2 construct: expressed in transfected cells
T2 sequence (P35372 whole entry): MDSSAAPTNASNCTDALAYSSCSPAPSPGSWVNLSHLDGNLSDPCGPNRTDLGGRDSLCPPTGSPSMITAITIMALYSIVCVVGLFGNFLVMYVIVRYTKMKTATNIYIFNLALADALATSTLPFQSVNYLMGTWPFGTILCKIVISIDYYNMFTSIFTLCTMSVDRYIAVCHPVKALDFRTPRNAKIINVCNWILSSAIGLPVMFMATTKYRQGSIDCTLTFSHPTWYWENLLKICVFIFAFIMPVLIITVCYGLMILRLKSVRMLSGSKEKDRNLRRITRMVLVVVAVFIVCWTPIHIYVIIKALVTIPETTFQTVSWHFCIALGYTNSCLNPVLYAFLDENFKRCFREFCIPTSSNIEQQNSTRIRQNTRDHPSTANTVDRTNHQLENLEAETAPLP
Description: as §1, §2

[3] = molecular target: T3, human opioid receptor κ (Homo sapiens, UniProt P41145); experiment: Ca2+ response monitored by FLIPR, κ-expressing cells; conditions: κ-expressing HEK293T cells
T3 construct: expressed in transfected cells
T3 sequence (P41145 whole entry): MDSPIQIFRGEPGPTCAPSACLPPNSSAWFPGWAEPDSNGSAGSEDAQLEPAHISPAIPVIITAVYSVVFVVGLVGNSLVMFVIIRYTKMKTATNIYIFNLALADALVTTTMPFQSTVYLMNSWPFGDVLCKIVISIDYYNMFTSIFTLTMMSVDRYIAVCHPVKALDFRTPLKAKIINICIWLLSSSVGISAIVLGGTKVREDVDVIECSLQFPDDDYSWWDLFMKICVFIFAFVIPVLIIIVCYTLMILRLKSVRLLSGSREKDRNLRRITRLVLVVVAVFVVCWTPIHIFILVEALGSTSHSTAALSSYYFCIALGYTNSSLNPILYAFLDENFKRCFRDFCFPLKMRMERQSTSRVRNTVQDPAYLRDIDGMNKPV
Description: as §1, §2

[4] = Gqαi3 cotransfected, Fluo-4 AM, FLIPR, mean±SE, n = 3, read-out: EC50 (intracellular Ca2+ mobilization)

T1 sequence (P41143 whole entry): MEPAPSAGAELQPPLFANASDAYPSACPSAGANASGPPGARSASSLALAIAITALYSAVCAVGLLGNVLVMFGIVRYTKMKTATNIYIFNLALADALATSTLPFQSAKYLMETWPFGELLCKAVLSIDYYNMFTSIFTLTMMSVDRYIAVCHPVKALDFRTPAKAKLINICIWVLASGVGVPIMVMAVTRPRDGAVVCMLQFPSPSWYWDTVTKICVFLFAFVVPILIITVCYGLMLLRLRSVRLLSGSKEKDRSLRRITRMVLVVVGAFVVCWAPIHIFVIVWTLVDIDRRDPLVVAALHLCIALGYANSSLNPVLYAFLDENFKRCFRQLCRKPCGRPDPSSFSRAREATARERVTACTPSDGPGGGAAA

Substance	Agonist activity, in words ([1]; δ-expressing HEK293T cells, 1 nM to 50 µM)	Agonist activity, in words ([2]; 1 nM to 50 µM)	Agonist activity, in words ([3]; 1 nM to 50 µM)	Selectivity to the δ-subtype over κ (times) ([1]; δ versus κ, FLIPR EC50)	Selectivity to the δ-subtype over μ (times) ([1]; δ versus μ, FLIPR EC50)	EC50 ([1]; δ-expressing HEK293T cells, Gqαi3 cotransfected, Fluo-4 AM, FLIPR, mean±SE, n = 3, read-out: EC50 (intracellular Ca2+ mobilization)) [µM]	EC50 [2, 4] [µM]	EC50 [3, 4] [µM]
YGGHMNPA [His^4-BmK-YA]	no activity was detected	no activity was detected	no activity was detected	–	–	–	–	–
YGGYMNPA-NH2 [BmK-YA]	–	–	–	12	6.8	2.5	17	30 ± 0.5
